From US12415794B2 (Edgewise Therapeutics, Inc., priority 2018, dated 2025)

Tests used:
[1] = molecular target: T1, cardiac myofibrils (myosin ATPase); test: Cardiac Myofibril ATPase Assay (counter screen); type: biochemical; conditions: myofibrils 1.0 mg/mL, KCl omitted
T1 construct: frozen myofibril pellets obtained from cardiac tissue; from tissue
Procedure, shortened: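 Frozen cardiac myofibrils at 1.0 mg/mL final, KCl omitted, in a PK-LDH coupled ATPase assay; ADP production tracked as NADH loss by absorbance at 340 nm. Inhibition taken as reduced rate relative to vehicle controls, with IC50 derived.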

[2] = molecular target: skeletal myofibrils (myosin ATPase); test: Skeletal Myofibril ATPase Assay; type: biochemical
Procedure, shortened: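 Skeletal myofibril ATPase measured by PK-LDH coupled NADH depletion, absorbance 340 nm read every 1.5-2 min over 45 min. Max−min rate normalized to 1% DMSO vehicle as 100%; IC50 from four-parameter logistic fit with bottom ≥0. Cardiac myofibrils used as counter-screen.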

[3] = tested on: embryos from zebrafish model of DMD; conditions: Li and Amer, PLoSONE, 2015; cited from earlier work

T1 sequence (P12883 whole entry): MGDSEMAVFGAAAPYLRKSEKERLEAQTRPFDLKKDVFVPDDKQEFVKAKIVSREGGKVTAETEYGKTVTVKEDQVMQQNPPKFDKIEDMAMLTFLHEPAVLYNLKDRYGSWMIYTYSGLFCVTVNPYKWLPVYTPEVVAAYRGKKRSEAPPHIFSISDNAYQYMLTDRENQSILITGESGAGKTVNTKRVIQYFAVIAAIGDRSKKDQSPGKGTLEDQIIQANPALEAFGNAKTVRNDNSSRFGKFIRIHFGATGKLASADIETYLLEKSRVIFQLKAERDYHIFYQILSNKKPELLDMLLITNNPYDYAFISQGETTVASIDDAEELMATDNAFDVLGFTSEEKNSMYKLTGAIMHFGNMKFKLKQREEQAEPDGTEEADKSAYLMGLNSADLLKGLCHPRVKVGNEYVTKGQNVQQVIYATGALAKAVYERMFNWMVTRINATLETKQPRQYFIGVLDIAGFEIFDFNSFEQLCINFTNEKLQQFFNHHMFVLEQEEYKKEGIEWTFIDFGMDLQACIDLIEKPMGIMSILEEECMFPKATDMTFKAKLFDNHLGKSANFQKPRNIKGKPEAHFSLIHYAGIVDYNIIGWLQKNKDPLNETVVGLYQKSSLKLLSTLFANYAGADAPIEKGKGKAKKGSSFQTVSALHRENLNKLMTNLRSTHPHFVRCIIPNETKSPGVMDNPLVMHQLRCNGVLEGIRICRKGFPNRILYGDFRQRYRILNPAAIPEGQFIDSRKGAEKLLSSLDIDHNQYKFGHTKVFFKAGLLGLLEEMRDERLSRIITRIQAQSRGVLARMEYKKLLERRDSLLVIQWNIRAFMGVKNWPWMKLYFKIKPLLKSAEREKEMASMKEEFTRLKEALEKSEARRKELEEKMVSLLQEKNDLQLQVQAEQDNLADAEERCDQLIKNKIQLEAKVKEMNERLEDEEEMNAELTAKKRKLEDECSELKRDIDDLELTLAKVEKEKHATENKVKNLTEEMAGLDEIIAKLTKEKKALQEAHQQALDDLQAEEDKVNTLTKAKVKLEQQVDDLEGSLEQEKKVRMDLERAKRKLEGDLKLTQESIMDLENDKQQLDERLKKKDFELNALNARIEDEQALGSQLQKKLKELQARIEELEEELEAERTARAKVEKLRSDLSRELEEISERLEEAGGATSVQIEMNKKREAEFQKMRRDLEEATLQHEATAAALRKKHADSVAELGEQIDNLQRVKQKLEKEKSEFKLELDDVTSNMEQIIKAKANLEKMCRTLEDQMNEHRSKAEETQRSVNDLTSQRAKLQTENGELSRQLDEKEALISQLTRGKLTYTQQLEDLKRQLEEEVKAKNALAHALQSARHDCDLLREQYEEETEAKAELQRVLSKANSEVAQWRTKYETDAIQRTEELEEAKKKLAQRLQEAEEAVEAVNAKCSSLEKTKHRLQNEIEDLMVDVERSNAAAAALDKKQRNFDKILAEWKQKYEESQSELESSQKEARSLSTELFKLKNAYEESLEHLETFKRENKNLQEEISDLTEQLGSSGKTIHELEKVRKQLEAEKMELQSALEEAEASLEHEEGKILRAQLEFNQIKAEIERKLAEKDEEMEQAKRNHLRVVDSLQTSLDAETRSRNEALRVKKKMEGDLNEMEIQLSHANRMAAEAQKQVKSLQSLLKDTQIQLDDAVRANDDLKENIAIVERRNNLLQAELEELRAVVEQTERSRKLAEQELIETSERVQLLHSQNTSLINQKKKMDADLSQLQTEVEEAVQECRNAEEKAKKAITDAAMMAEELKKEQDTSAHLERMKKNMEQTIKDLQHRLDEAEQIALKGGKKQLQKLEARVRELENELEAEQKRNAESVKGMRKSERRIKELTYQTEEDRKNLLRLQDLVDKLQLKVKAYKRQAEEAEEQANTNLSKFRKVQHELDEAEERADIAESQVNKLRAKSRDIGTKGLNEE
T1 sequence (P08590 whole entry partner): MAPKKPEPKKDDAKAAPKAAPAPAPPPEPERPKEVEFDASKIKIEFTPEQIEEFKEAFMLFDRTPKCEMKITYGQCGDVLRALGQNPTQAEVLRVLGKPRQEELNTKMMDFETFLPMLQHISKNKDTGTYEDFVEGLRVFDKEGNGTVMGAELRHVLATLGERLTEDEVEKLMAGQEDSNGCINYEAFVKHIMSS
T1 sequence (P10916 whole entry partner): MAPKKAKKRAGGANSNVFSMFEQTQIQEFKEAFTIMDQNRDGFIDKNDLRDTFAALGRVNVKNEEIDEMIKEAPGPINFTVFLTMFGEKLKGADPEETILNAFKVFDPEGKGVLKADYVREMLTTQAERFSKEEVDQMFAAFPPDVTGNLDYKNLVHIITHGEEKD

IC50 ([1]; Table 5C) [µM]	IC50 ([2]; Table 4C) [µM]	Structure (SMILES)	also measured
		CCNC(=O)Cn1nc(-c2ccc(NC34CC(CO)(C3)C4)nc2)ccc1=O [Compound I-58, N-ethyl-2-(3-(6-((3-(hydroxymethyl)bicyclo[1.1.1]pentan-1-yl)amino)pyridin-3-yl)-6-oxopyridazin-1(6H)-yl)acetamide]	IC50 ([1]; Table 5A): > 100 µM; IC50 ([2]; Table 4A): 10 to 100 µM
> 100	> 100	COc1ccc(-c2ccc(=O)n(CC(=O)NCc3cnn(C)c3)n2)cc1 [IIIa-32, 2-(3-(4-methoxyphenyl)-6-oxopyridazin-1(6H)-yl)-N-((1-methyl-1H-pyrazol-4-yl)methyl) acetamide]	
> 100	10 to 100	Cc1ccc(-c2ccc(=O)n(CC(=O)NC3CCCCC3)n2)cc1 [IIIc-6, N-cyclohexyl-2-(6-oxo-3-(p-tolyl)pyridazin-1(6H)-yl)acetamide]	
		CCNC(=O)Cn1nc(-c2ccc(NC34CC(C)(C3)C4)nc2)ccc1=O [Compound I-60, N-ethyl-2-(3-(6-((3-methylbicyclo[1.1.1]pentan-1-yl)amino)pyridin-3-yl)-6-oxopyridazin-1(6H)-yl)acetamide]	IC50 ([1]; Table 5A): > 100 µM; IC50 ([2]; Table 4A): < 10 µM
> 100	10 to 100	COc1ccc(-c2ccc(=O)n(CC(=O)Nc3ccc4c(c3)OCO4)n2)cc1 [IIIb-28, N-(benzo[d][1,3]dioxol-5-yl)-2-(3-(4-methoxyphenyl)-6-oxopyridazin-1(6H)-yl)acetamide]	
> 100	10 to 100	COc1ccc(-c2ccc(=O)n(CC(=O)NCc3ccccc3Cl)n2)cc1C [IIIa-23, N-(2-chlorobenzyl)-2-(3-(4-methoxy-3-methylphenyl)-6-oxopyridazin-1(6H)-yl)acetamide]	
> 100	10 to 100	O=C(Cn1nc(-c2ccccc2)ccc1=O)Nc1ccccc1C(F)(F)F [IIIc-52, 2-(6-oxo-3-phenylpyridazin-1(6H)-yl)-N-(2-(trifluoromethyl)phenyl)acetamide]	
		CCNC(=O)Cn1nc(-c2ccc(OCC(F)F)cc2)ccc1=O [II-7, 2-(3-(4-(2,2-difluoroethoxy)phenyl)-6-oxopyridazin-1(6H)-yl)-N-ethylacetamide]	IC50 ([1]; Table 5B): 10 to 100 µM; IC50 ([2]; Table 4B): < 10 µM
		CCNC(=O)Cn1nc(-c2ccc(OC(F)(F)F)nc2)ccc1=O [Compound I-14, N-ethyl-2-(6-oxo-3-(6-(trifluoromethoxy)pyridin-3-yl)pyridazin-1(6H)-yl)acetamide]	IC50 ([1]; Table 5A): > 100 µM; IC50 ([2]; Table 4A): 10 to 100 µM
> 100	10 to 100	COc1ccc(-c2ccc(=O)n(CC(=O)NCc3ccon3)n2)cc1 [IIIa-26]	
> 100	> 100	COc1ccc(-c2ccc(=O)n(CC(=O)NCCC(C)C)n2)c(F)c1 [IIIb-57, 2-(3-(2-fluoro-4-methoxyphenyl)-6-oxopyridazin-1(6H)-yl)-N-isopentylacetamide]	
		CC(C)(C#N)NC(=O)Cn1nc(-c2ccc(OC(F)F)nc2)ccc1=O [Compound I-35, N-(2-cyanopropan-2-yl)-2-(3-(6-(difluoromethoxy)pyridin-3-yl)-6-oxopyridazin-1(6H)-yl)acetamide]	IC50 ([1]; Table 5A): > 100 µM; IC50 ([2]; Table 4A): 10 to 100 µM
> 100	10 to 100	COc1ccc(-c2ccc(=O)n(CC(=O)NC(C)c3ccccc3Cl)n2)cc1 (stereo not drawn) [IIIa-25, N-(1-(2-chlorophenyl)ethyl)-2-(3-(4-methoxyphenyl)-6-oxopyridazin-1(6H)-yl)acetamide]	
		Cc1ccc(S(=O)(=O)NCc2ccccc2)cc1 [N-benzyl-p-tolyl-sulfonamide (BTS), N-benzyl-p-tolyl-sulfonamide]	protection of muscles from pathological muscle derangement [3]: protect muscles from pathological muscle derangement
